In patent US6852761B2, “Polycyclic aryl and heteroaryl substituted benzenes useful for selective inhibition of the coagulation cascade” (Pharmacia Corporation, priority 2000, dated 2005):

Key:
[1] = biological target: T1, recombinant soluble tissue factor and recombinant human factor VIIa (TF-VIIA) (Homo sapiens, UniProt P08709); assay: TF-VIIa Assay; type: biochemical
T1 construct: conversion of coagulation factor VII to VIIa by Xa; purchased American Diagnostica, Greenwich Conn; (factor VIIa); host or cells: soluble TF made in house in E. coli
T1 sequence (P08709 213-466 limits assumed): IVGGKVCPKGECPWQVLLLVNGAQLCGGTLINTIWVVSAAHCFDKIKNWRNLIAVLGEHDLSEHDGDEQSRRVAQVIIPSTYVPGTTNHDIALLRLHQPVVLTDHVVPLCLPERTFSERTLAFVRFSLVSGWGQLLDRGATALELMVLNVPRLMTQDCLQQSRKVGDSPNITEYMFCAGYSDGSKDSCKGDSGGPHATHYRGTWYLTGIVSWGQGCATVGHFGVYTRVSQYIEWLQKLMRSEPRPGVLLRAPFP
T1 sequence (P08709 61-212 limits assumed): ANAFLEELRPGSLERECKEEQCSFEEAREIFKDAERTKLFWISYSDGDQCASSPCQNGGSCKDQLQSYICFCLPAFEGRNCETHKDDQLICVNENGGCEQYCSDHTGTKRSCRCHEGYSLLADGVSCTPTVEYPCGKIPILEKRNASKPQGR
T1 sequence (P13726 33-251 partner limits assumed): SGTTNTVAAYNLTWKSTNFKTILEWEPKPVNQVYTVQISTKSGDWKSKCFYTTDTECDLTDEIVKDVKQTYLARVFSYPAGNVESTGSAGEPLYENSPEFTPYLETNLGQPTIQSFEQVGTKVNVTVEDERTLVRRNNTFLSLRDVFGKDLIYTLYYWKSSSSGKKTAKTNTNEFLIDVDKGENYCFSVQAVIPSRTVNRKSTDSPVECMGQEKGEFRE

human factor Xa = biological target: T2, human factor Xa (Homo sapiens, UniProt P00742); assay: Xa Assay; type: biochemical
T2 construct: leads from XII to XIIa to XIa to IXa and to the conversion of X to Xa; purchased Enzyme Research Laboratories, South Bend Ind
T2 sequence (P00742 235-488 limits assumed): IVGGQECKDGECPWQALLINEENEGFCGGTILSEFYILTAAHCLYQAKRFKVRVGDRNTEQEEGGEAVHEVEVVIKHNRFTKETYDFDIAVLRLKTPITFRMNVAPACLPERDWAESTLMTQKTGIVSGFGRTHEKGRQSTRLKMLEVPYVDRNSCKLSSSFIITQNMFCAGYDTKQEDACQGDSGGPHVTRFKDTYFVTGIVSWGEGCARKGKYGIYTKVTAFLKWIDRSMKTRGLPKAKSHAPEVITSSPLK
T2 sequence (P00742 41-179 limits assumed): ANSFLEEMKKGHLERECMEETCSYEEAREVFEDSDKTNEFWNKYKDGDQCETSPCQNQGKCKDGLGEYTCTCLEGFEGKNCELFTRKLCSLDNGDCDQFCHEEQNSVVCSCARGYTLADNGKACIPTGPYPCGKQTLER
Protocol: 0.3 nM human factor Xa and 0.15 mM N-α-Benzyloxycarbonyl-D-arginyl-L-glycyl-L-arginine-p-nitroaniline-dihydrochloride (S-2765) are added to a 96-well assay plate containing either inhibitor or buffer (50 mM Tris-HCl, pH 8.0, 100 mM NaCl, 0.1% BSA). The reaction, in a final volume of 100 ul is measured immediately at 405 nm to determine background absorbance. The plate is incubated at room temperature for 60 min, at which time the rate of hydrolysis of the substrate is measured by monitoring the reaction at 405 nm for the release of p-nitroaniline. Percent inhibition of Xa activity is calculated from OD405 nm value from the experimental and control sample.
Recombinant soluble TF, consisting of amino acids 1-219 of the mature protein sequence was expressed in E. coli and purified using a Mono Q Sepharose FPLC. Recombinant human VIIa was purchased from American Diagnostica, Greenwich Conn. and chromogenic substrate N-Methylsulfonyl-D-phe-gly-arg-p-nitroaniline was prepared by American Peptide Company, Inc., Sunnyvale, Calif. Factor Xa was obtained from Enzyme Research Laboratories, South Bend Ind., thrombin from Calbiochem, La Jolla, Calif., and trypsin and L-BAPNA from Sigma, St. Louis Mo. The chromogenic substrates S-2765 and S-2238 were purchased from Chromogenix, Sweden.

SMILES	IC50 [1]	IC50 (human factor Xa)
O=C(NCC1CCNCC1)c1cc(NS(=O)(=O)Cc2ccccc2)ccc1Sc1ccccc1 [Example 1]	> 30 µM	
CN(C)c1ccc(CNC(=O)c2cc(NS(=O)(=O)Cc3ccccc3)ccc2Sc2ccccc2)cc1 [Example 2]	> 30 µM	> 30 µM
O=C(NCc1ccncc1)c1cc(NS(=O)(=O)Cc2ccccc2)ccc1Sc1ccccc1 [Example 3]	> 30 µM	> 30 µM
N=C(N)c1ccc(CNC(=O)c2cc(NS(=O)(=O)Cc3ccccc3)ccc2Sc2ccccc2)cc1 [Example 4]	> 30 µM	> 30 µM
CN(C)c1ccc(CNC(=O)Cc2c(F)ccc(NS(=O)(=O)Cc3ccccc3)c2F)cc1 [Example 10]	> 30 µM	
N=C(N)c1ccc(CNC(=O)Cc2c(-c3ccccc3)ccc(NCCc3ccccc3)c2F)cc1 [Example 17]		> 30 µM
N=C(N)c1ccc(CNC(=O)Cc2c(-c3ccccc3)ccc(NCCc3ccccc3)c2O)cc1 [Example 19]		> 30 µM
COc1c(NC(C)C)ccc(-c2ccccc2)c1CC(=O)NCc1ccc(C(=N)N)cc1 [Example 22]		> 30 µM

Now from value to molecule:

IC50 [1]	IC50 (human factor Xa)	SMILES
> 30 µM	> 30 µM	O=C(Cc1c(F)ccc(NS(=O)(=O)Cc2ccccc2)c1F)NCC1CCNCC1 [Example 9]
> 30 µM		O=C(Cc1c(F)ccc(NS(=O)(=O)Cc2ccccc2)c1F)NCc1ccncc1 [Example 11]
> 30 µM	> 30 µM	O=C(Cc1c(F)ccc(NS(=O)(=O)Cc2ccccc2)c1F)NCCCn1ccnc1 [Example 12]
> 30 µM		N=C(N)c1cccc(CNC(=O)Cc2c(F)ccc(NS(=O)(=O)Cc3ccccc3)c2F)c1 [Example 13]
> 30 µM	> 30 µM	N=C(N)c1ccc(CNC(=O)Cc2c(F)ccc(NS(=O)(=O)Cc3ccccc3)c2F)cc1 [Example 14]
> 30 µM	> 30 µM	N=C(N)NCCCCCNC(=O)Cc1c(F)ccc(NS(=O)(=O)Cc2ccccc2)c1F [Example 15]
